Experimental data from patent US12606528B2, “Methods and materials for inhibiting NF-kB activity” (University of Pittsburgh - Of the Commonwealth System of …, priority 2019, dated 2026).
Where two headings read alike, the source gives them in different places.

Assays:
NF-κB = NF-κB assay: THP1-NF-κB-LUC cells, LPS-stimulated secreted luciferase; type: cell-based; settings: THP1-NF-κB-LUC cells; compounds 2 hours before LPS (10 ng/mL) for 18 hours; secreted luciferase; read-out: IC50 (NF-κB assay)
Procedure, shortened: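 THP1-NF-κB-LUC cells (25k/well) were pretreated with compounds for 2 h, then stimulated with LPS (10 ng/mL) for 18 h. Secreted luciferase was measured and normalized to vehicle, and IC50 was fitted from the concentration series.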

TNF release = assay: TNF assay: TNF release from LPS-stimulated human PBMCs (TNF ELISA); type: cell-based; settings: human PBMCs, compounds 2 hours before LPS (10 ng/ml) for 18 hours, supernatant TNF ELISA, read-out: IC50 (TNF assay)
Procedure, shortened: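 TNF ELISA on supernatants read-out; cells were 10k human PBMCs/well given LPS at 10 ng/mL for 18 h after a 2 h compound pre-incubation across a concentration series, with IC50 derived for suppression of TNF secretion.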

Row | SMILES | IC50 (NF-κB) [µM] | IC50 (TNF release; PBMC) [µM] | IC50 (TNF release) [µM]
1 | CC(C)CC1Oc2c(cc(Br)cc2S(=O)(=O)Nc2ccc(C(C)C)cc2)NC1=O (centres unmarked) [BC19765] | < 0.1 | > 10 | –
2 | CC(C)CC1Oc2cc(S(=O)(=O)Nc3ccc(C(C)C)cc3)c(Br)cc2NC1=O (centres unmarked) [BC19766] | 1 to 10 | 1 to 10 | –
3 | Cc1ccc(NS(=O)(=O)c2cc(Br)cc3c2OC(CC(C)C)C(=O)N3)cc1Cl (centres unmarked) [BC19767] | < 0.1 | > 10 | –
4 | Cc1ccc(NS(=O)(=O)c2cc3c(cc2Br)NC(=O)C(CC(C)C)O3)cc1Cl (centres unmarked) [BC19768] | 1 to 10 | > 10 | –
5 | CC(C)CC1Oc2c(cc(Br)cc2S(=O)(=O)Nc2ccc(F)cc2F)NC1=O (centres unmarked) [BC19769] | < 0.1 | > 10 | –
6 | CC(C)CC1Oc2cc(S(=O)(=O)Nc3ccc(F)cc3F)c(Br)cc2NC1=O (centres unmarked) [BC19770] | 0.1 to 1 | > 10 | –
7 | CCc1cccc(NS(=O)(=O)c2cc(Br)cc3c2OC(CC(C)C)C(=O)N3)c1 (centres unmarked) [BC19771] | < 0.1 | > 10 | –
8 | CCc1cccc(NS(=O)(=O)c2cc3c(cc2Br)NC(=O)C(CC(C)C)O3)c1 (centres unmarked) [BC19772] | 0.1 to 1 | > 10 | –
9 | CC(C)CC1Oc2c(cc(Br)cc2S(=O)(=O)Nc2cccc(F)c2)NC1=O (centres unmarked) [BC19773] | < 0.1 | > 10 | –
10 | CC(C)CC1Oc2cc(S(=O)(=O)Nc3cccc(F)c3)c(Br)cc2NC1=O (centres unmarked) [BC19774] | 0.1 to 1 | > 10 | –
11 | CC(C)CC1Oc2c(cc(Br)cc2S(=O)(=O)Nc2cccc(Cl)c2)NC1=O (centres unmarked) [BC19775] | < 0.1 | > 10 | –
12 | CC(C)CC1Oc2cc(S(=O)(=O)Nc3cccc(Cl)c3)c(Br)cc2NC1=O (centres unmarked) [BC19776] | 0.1 to 1 | > 10 | –
13 | CC(C)CC1Oc2c(cc(Br)cc2S(=O)(=O)Nc2ccc(F)cc2Cl)NC1=O (centres unmarked) [BC19777] | < 0.1 | > 10 | –
14 | CC(C)CC1Oc2cc(S(=O)(=O)Nc3ccc(F)cc3Cl)c(Br)cc2NC1=O (centres unmarked) [BC19778] | > 10 | > 10 | –
15 | COc1ccc(NS(=O)(=O)c2cc(Br)cc3c2OC(CC(C)C)C(=O)N3)cc1Cl (centres unmarked) [BC19779] | 0.1 to 1 | 1 to 10 | –
16 | COc1ccc(NS(=O)(=O)c2cc3c(cc2Br)NC(=O)C(CC(C)C)O3)cc1Cl (centres unmarked) [BC19780] | 1 to 10 | > 10 | –
17 | CC(C)CC1Oc2c(cc(Br)cc2S(=O)(=O)Nc2ccc(F)cc2)NC1=O (centres unmarked) [BC19781] | < 0.1 | 1 to 10 | –

Row | SMILES | IC50 (NF-κB) [µM] | IC50 (TNF release; PBMC) [µM] | IC50 (TNF release) [µM]
18 | CC(C)CC1Oc2cc(S(=O)(=O)Nc3ccc(F)cc3)c(Br)cc2NC1=O (centres unmarked) [BC19782] | 1 to 10 | > 10 | –
19 | CC1Oc2c(cc(Br)cc2S(=O)(=O)Nc2ccc(OC(F)(F)F)cc2)N(C)C1=O (centres unmarked) [BC19783] | < 0.1 | > 10 | –
20 | CC1Oc2cc(S(=O)(=O)Nc3ccc(OC(F)(F)F)cc3)c(Br)cc2N(C)C1=O (centres unmarked) [BC19784] | 1 to 10 | > 10 | –
21 | Cc1ccc(NS(=O)(=O)c2cc(Br)cc3c2OC(C)C(=O)N3C)cc1F (centres unmarked) [BC19785] | < 0.1 | > 10 | –
22 | CC1Oc2cc(S(=O)(=O)Nc3ccc(F)c(F)c3)c(Br)cc2N(C)C1=O (centres unmarked) [BC19786] | 1 to 10 | > 10 | –
23 | CC1Oc2c(cc(Br)cc2S(=O)(=O)Nc2ccc(F)c(F)c2)N(C)C1=O (centres unmarked) [BC19787] | < 0.1 | > 10 | –
24 | CC1Oc2cc(S(=O)(=O)Nc3ccc(F)c(F)c3)c(Br)cc2N(C)C1=O (centres unmarked) [BC19788] | < 0.1 | – | > 10
25 | CC1Oc2c(cc(Br)cc2S(=O)(=O)Nc2ccccc2)N(C)C1=O (centres unmarked) [BC19789] | < 0.1 | 1 to 10 | –
26 | CC1Oc2cc(S(=O)(=O)Nc3ccccc3)c(Br)cc2N(C)C1=O (centres unmarked) [BC19790] | 1 to 10 | > 10 | –
27 | CC1Oc2c(cc(Br)cc2S(=O)(=O)Nc2ccc(Cl)cc2)N(C)C1=O (centres unmarked) [BC19791] | < 0.1 | > 10 | –
28 | CC1Oc2cc(S(=O)(=O)Nc3ccc(Cl)cc3)c(Br)cc2N(C)C1=O (centres unmarked) [BC19792] | 1 to 10 | > 10 | –
29 | CC1Oc2c(cc(Br)cc2S(=O)(=O)Nc2ccc(C(C)C)cc2)N(C)C1=O (centres unmarked) [BC19793] | < 0.1 | > 10 | –
30 | CC1Oc2cc(S(=O)(=O)Nc3ccc(C(C)C)cc3)c(Br)cc2N(C)C1=O (centres unmarked) [BC19794] | 1 to 10 | > 10 | –
31 | COc1ccc(NS(=O)(=O)c2cc3c(cc2Br)N(C)C(=O)C(C)O3)cc1 (centres unmarked) [BC19795] | > 10 | 1 to 10 | –
32 | Cc1ccc(NS(=O)(=O)c2cc(Br)cc3c2OC(C)C(=O)N3C)cc1Cl (centres unmarked) [BC19796] | < 0.1 | 1 to 10 | –
33 | Cc1ccc(NS(=O)(=O)c2cc3c(cc2Br)N(C)C(=O)C(C)O3)cc1Cl (centres unmarked) [BC19797] | 1 to 10 | 1 to 10 | –
34 | CC1Oc2c(cc(Br)cc2S(=O)(=O)Nc2ccc(F)cc2F)N(C)C1=O (centres unmarked) [BC19798] | < 0.1 | 1 to 10 | –
